Assay results: PubChem BioAssay (NCI)
Where “and” joins values, the source holds several entries; their conditions need not be identical. Equal entries are not always repeated.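 Exposure lasted 48 hours, with cells grown in 96-well plates and compounds tested at five concentrations. At the GI50, growth is halved. TGI is the concentration that stops growth completely.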

How the values were obtained:
Test in all cases: NCI anticancer screen, dose series, 48 h
[1] = tested on: SW-620 colon
[2] = tested on: CAKI-1 renal
[3] = tested on: MALME-3M melanoma
[4] = tested on: HT29 colon
[5] = tested on: 786-0 renal
[6] = tested on: COLO 205 colon
[7] = tested on: ACHN renal
[8] = tested on: SK-OV-3 ovarian
[9] = tested on: SK-MEL-2 melanoma
[10] = tested on: UACC-257 melanoma

Compound	TGI [1]	TGI [2]	TGI [3]	TGI [4]	TGI [5]	TGI [6]	TGI [7]	TGI [8]	GI50 [1]	GI50 [9]	TGI [9]	GI50 [5]	GI50 [6]	GI50 [7]	GI50 [8]	TGI [10]	GI50 [2]	GI50 [3]	GI50 [4]	GI50 [10]
Brc1cccc(C2SCc3nc4ccccc4n32)c1 (stereo not drawn)	> 100 µM	> 100 µM	77.5 µM	52.3 µM	44.5 µM	38.6 µM	> 100 µM	65 µM												
COc1ccc(C2CC(c3cc(OC)c(OC)c(OC)c3)=NN2C(C)=O)cc1OCC(=O)Nc1nc2ccc(C(F)(F)F)cc2s1 (stereo not drawn)	> 100 µM				12.2 µM	> 100 µM	7.13 µM	39.1 µM	> 100 µM	3.08 µM	20.4 µM	3.58 µM	3.94 µM	2.48 µM	5.75 µM					
CCOC(=O)c1oc2ccc(OC)c3c2c1CCC3	> 100 µM		> 100 µM		> 100 µM	> 100 µM	> 100 µM	> 100 µM			> 100 µM					40 µM				
CC(C)(C)c1n[nH]c(=S)n(/N=C/c2ccc(F)c(Oc3ccccc3)c2)c1=O	> 100 µM	68.9 µM	91.5 µM	> 100 µM	> 100 µM	> 100 µM	> 100 µM	> 100 µM	34.7 µM			34.9 µM	38.6 µM	33.8 µM	38.2 µM	68.4 µM	28.5 µM	28.5 µM	43.4 µM	24.2 µM
O=C1OC(CCCl)(c2ccccc2)CC1CN1CCOCC1 (stereo not drawn)	39.2 µM	24.6 µM	33.5 µM	46 µM	24.4 µM	35.4 µM	> 100 µM	> 100 µM			57.5 µM					73.4 µM				
O=C(C1CCCCC1)[C@@H]1[C@]2(C(=O)NC3CCCCC32)[C@@H]2CCCN2[C@@]12C(=O)NC1CCC(Cl)CC12 (stereo partly drawn)	238 µM	225 µM	330 µM	199 µM	319 µM	323 µM	222 µM	284 µM	98.6 µM	147 µM	321 µM	151 µM	158 µM	103 µM	145 µM	288 µM	80.8 µM	132 µM	64.4 µM	135 µM
c1ccc2c(c1)c(NCCCCN1CCCCC1)cc1c3ccccc3c(NCCCCN3CCCCC3)cc21	> 100 µM	46.1 µM	38.7 µM		29.1 µM	47.7 µM	30.5 µM	48.1 µM	10.6 µM	69.3 µM	> 100 µM	12 µM	21.9 µM	15.5 µM	18.3 µM	6.36 µM	21 µM	12.9 µM		2.67 µM
O=S(=O)(c1ccccc1)C(CN1CCCCC1)S(=O)(=O)c1ccccc1	> 100 µM	> 100 µM	> 100 µM	> 100 µM	> 100 µM	> 100 µM	> 100 µM	> 100 µM			> 100 µM					> 100 µM				
CCCCCCCCCCCC(=O)OCCOCCOCCOCCOCCOCc1ccc(OC)cc1	> 100 µM	> 100 µM	> 100 µM	> 100 µM	> 100 µM	> 100 µM	> 100 µM	> 100 µM			> 100 µM					> 100 µM				
C[Si](C)(C)OC1(C#N)C2C3CC4C2C(=O)C2C4C3C21 (stereo not drawn)	> 100 µM	> 100 µM	> 100 µM		> 100 µM	> 100 µM	> 100 µM	> 100 µM			> 100 µM					> 100 µM				
N#Cc1c(N/N=C/c2c(Cl)cccc2Cl)nc(N)nc1N1CCOCC1	> 100 µM	> 100 µM		> 100 µM	> 100 µM	> 100 µM	> 100 µM	> 100 µM	6.11 µM	8.3 µM	81.8 µM	5.82 µM	14.9 µM	5.48 µM	20.2 µM	> 100 µM	12.1 µM		19.4 µM	6.77 µM
COc1cc2c(cc1OC(=O)CC(C)O)C1C(OC2=O)C(OC(C)=O)C=C2CCN(C)[C@H]21 (stereo partly drawn)	> 100 µM	> 100 µM		> 100 µM	53.7 µM	> 100 µM	> 100 µM	57.2 µM			41.5 µM					> 100 µM				
Clc1cc(Cl)c(OCC#CI)cc1Cl	3.88 µM	2.69 µM		5.66 µM	3.39 µM	3.06 µM	12 µM		1.76 µM	7.98 µM	21.3 µM	1.69 µM	1.57 µM	3.01 µM		11.9 µM	1.09 µM		2.1 µM	2.79 µM
COc1ccc2cc(-c3ccoc(=O)c3-c3cc(OC)c(OC)c(OC)c3)ccc2c1	> 100 µM	> 100 µM	> 100 µM	22.5 µM	> 100 µM	0.212 µM	> 100 µM	> 100 µM	0.0455 µM	0.0752 µM	> 100 µM	0.201 µM	0.0449 µM	1.48 µM	0.389 µM		0.0986 µM	> 100 µM	0.0383 µM	
CS(=O)(=O)c1ccc(C(=O)Nc2ccc(Cl)c(-c3ccccn3)c2)c(Cl)c1	> 100 µM and 13.2 µM		> 100 µM and 31.6 µM		> 100 µM		> 100 µM and 23.5 µM	> 100 µM				63.2 µM			> 100 µM			41.9 µM and 5.24 µM		
CN(C)c1ccc2c(c1)Sc1cc(N(C)C)ccc1N2C(=O)c1ccccc1	> 100 µM	> 100 µM	77.1 µM		> 100 µM	> 100 µM	> 100 µM	> 100 µM	71.6 µM			32.8 µM	> 100 µM	32.4 µM	54.8 µM	> 100 µM	14.7 µM	21.4 µM		> 100 µM
CC(C)CC(CC1=CCC2CC1C2(C)C)C1=C(O)C(C)(C)C(=O)C(C)(C)C1=O (stereo not drawn)	> 100 µM	2.29 µM	1.13 µM	11.2 µM	> 100 µM		3.58 µM	0.733 µM	0.4 µM	0.286 µM	0.722 µM	0.363 µM		0.352 µM	0.256 µM	0.792 µM	0.332 µM	0.295 µM	0.383 µM	0.256 µM
c1ccc2c(C3NCCc4[nH]cnc43)cccc2c1 (stereo not drawn)	> 100 µM	> 100 µM		> 100 µM	> 100 µM	> 100 µM	> 100 µM	> 100 µM			> 100 µM					> 100 µM				

Compound	TGI [1]	TGI [2]	TGI [3]	TGI [4]	TGI [5]	TGI [6]	TGI [7]	TGI [8]	GI50 [1]	GI50 [9]	TGI [9]	GI50 [5]	GI50 [6]	GI50 [7]	GI50 [8]	TGI [10]	GI50 [2]	GI50 [3]	GI50 [4]	GI50 [10]
CCCCNCC(=O)O[C@]1(CC)C(=O)OCc2c1cc1n(c2=O)Cc2cc3ccccc3nc2-1			30.5 µM	> 100 µM	0.946 µM	17.5 µM	3.77 µM	> 40.5 µM			8.76 µM					8.19 µM				
CCCCCCCCCCCCCCCCCC(=O)OCC(COC1OC(COP(=O)(O)O)C(O)C(O)C1O)OC(=O)CCCCCCCCCCCCCCCCC (stereo not drawn)	17.9 µM	16.9 µM	14.2 µM	11.7 µM	14.9 µM	18.5 µM	12.7 µM	15.4 µM								16.6 µM				
Cn1c2c(cc(S(=O)(=O)c3ccccc3)c1=O)CCc1c-2cnn1-c1ccc(Cl)cc1		> 100 µM		> 100 µM	5.51 µM	> 100 µM	3.88 µM	5.24 µM		2.56 µM	5.9 µM	2.49 µM	> 100 µM	1.98 µM	2.34 µM		4.36 µM		3.31 µM	
COc1ccc(N=c2ssc3c(=S)ssc23)cc1	35.8 µM	> 100 µM	> 100 µM		> 100 µM		> 100 µM	> 100 µM			> 100 µM									
CC(C)(C)c1ccc(OCCCCCCN2CCNCC2)cc1	5.19 µM	17 µM	13.1 µM	10.5 µM	11.6 µM	4.09 µM	17.5 µM	24.7 µM	2.14 µM			3.34 µM	1.95 µM	5.01 µM	10.9 µM	22.9 µM	4.72 µM	3.27 µM	2.64 µM	10.5 µM
CCN(C(=O)N1CCN(c2cc3c(cc2F)c(=O)c(C(=O)O)cn3C2CC2)CC1)c1nc(-c2ccc(C)cc2)cs1	> 100 µM	> 100 µM		> 100 µM	10.8 µM		> 100 µM	19.4 µM	0.653 µM	2.5 µM	7.38 µM	0.954 µM		0.976 µM	1.53 µM		1.4 µM		0.332 µM	
C=CC(=O)N(C)[C@H]1C[C@H]2OC(C)(C1OC)n1c3ccccc3c3c4c(c5c6ccccc6n2c5c31)C(=O)NC4 (stereo partly drawn)	0.792 µM		0.449 µM	2.7 µM	0.69 µM	0.253 µM	> 50 µM	0.318 µM	0.0514 µM	0.193 µM	1.49 µM	0.0872 µM	0.0831 µM	0.139 µM	0.0955 µM	1.39 µM		0.0706 µM	0.178 µM	0.216 µM
N#CC(C(=O)CCC(=O)Nc1cccc(Cl)c1)c1ccccc1 (stereo not drawn)			> 100 µM	> 100 µM	> 100 µM	> 100 µM	> 100 µM	> 100 µM			> 100 µM					> 100 µM				
Cc1c(C#N)c(=O)[nH]c(=O)n1CCN1CCN(C(=O)NCCCCCCNC(=O)N2CCN(CCn3c(C)c(C#N)c(=O)[nH]c3=O)CC2)CC1	> 100 µM	> 100 µM		> 100 µM	> 100 µM	> 100 µM	> 100 µM	> 100 µM								> 100 µM				
COc1ccc(C2=C(Cl)c3cc(OC)c(OC)cc3C2Cl)cc1OC (stereo not drawn)	34.5 µM	35.2 µM	40.6 µM	29.8 µM	41.5 µM	32.5 µM	38.3 µM	53.9 µM								32 µM				
Nc1ncnc2[nH]ncc12	> 100 µM	1.44 µM		> 94.5 µM	21.2 µM	> 67.3 µM	> 100 µM	4.71 µM	0.646 µM	0.369 µM	2.91 µM	0.623 µM	1.55 µM	0.535 µM	0.315 µM	14.2 µM	0.11 µM		1.83 µM	0.983 µM
c1ccc(SC(CCCCC(Sc2ccccc2)Sc2ccccc2)Sc2ccccc2)cc1	> 100 µM	> 100 µM			> 100 µM	> 100 µM	> 100 µM	> 100 µM			> 100 µM					> 100 µM				
COc1ccc(NC(=O)C/C(C)=N\N=C(N)N)c([N+](=O)[O-])c1		> 100 µM	> 100 µM	> 100 µM	> 100 µM	> 100 µM	> 100 µM	> 100 µM			> 100 µM					> 100 µM				
CCC1CN2CCc3cc(OC)c(OC)cc3C2CC1CC1c2cc(OC)c(OC)cc2CCN1C(=O)C1CCCN1C(=O)OCc1ccccc1 (stereo not drawn)	28 µM	47.3 µM	32.4 µM	27.4 µM	40.8 µM		32.1 µM				33.6 µM					30.8 µM				
C=C1CC[C@@H]2[C@](C)(COC(C)=O)[C@@H](O)CC[C@@]2(C)[C@@H]1COc1ccc2ccc(=O)oc2c1	> 100 µM	> 100 µM	> 100 µM	> 100 µM	> 100 µM		> 100 µM		> 100 µM	> 100 µM	> 100 µM	31 µM		> 100 µM		> 100 µM	> 100 µM	> 100 µM	> 100 µM	> 100 µM
O=C(O)C1(P(=O)(O)O)CC1	> 100 µM	> 100 µM	> 100 µM		> 100 µM	> 100 µM	> 100 µM	> 100 µM			> 100 µM					> 100 µM				
C=C1COC(/C=C(\C)CC/C=C(\C)CCl)C1 (stereo not drawn)	> 100 µM			> 100 µM	> 100 µM	> 100 µM	> 100 µM	> 100 µM			> 100 µM									
